Measured values as given in patent US11969002B2, “Savoury and mouthfulness taste enhancers” (LUCTA, S.A., priority 2018, dated 2024).

Tested on: kokumi and/or umami taste
Test: Sensory test: taste threshold in model broth (duo-trio test, sensory panel)
Format: in vivo
Conditions: for taste quality with the savoury taste threshold in model broth: descriptor in brackets after the threshold value; for minimal effective concentration: duo-trio-test ISO 10399:2017, model broth as constant blank, successive 1:2 dilutions in model broth, panel value averaged over three sessions, read-out: savoury taste threshold in model broth
Excerpt: This sensory test allowed evaluating the capacity of the compounds of formula (IA), (IB), (IC), (ID), (IE), (IF), (IG), (IH) and (IJ) as defined above to enhance taste; particularly kokumi and/or umami taste. This test allowed measuring the taste threshold of the mixtures comprising an amount from 86% to 99% by weight measured by quantitative proton-NMR of a compound of formula (IA), (IB), (IC), (ID), (IE), (IF), (IG), (IH) and (IJ) in model broth. The “taste threshold” refers to the minimum taste stimulus needed to detect the presence of a compound of formula (IA), (IB), (IC), (ID), (IE), (IF), (IG), (IH) and (IJ) of the present invention. The lower the taste threshold, the greater the capacity as enhancer; particularly greater the capacity as kokumi and/or umami enhancer.
Samples • Diluted samples of the mixtures comprising a compound of formula (IA), (IB), (IC), (ID), (IE), (IF), (IG) and (IJ) in an amount from 86% to 99% by weight measured by quantitative proton-NMR with model broth. • Model broth as constant […]. • Diluted samples of comparative samples with model broth: • Comparative compound 1: 5-(aminomethyl)-2-methylpyrimidin-4-amine (Berkshire, United Kingdom) • Comparative compound 2: (4-amino-2-methylpyrimidin-5-yl)methanol (Carbosynth-Berkshire, United Kingdom) • Comparative compound 3: Thiamine (Sigma-Aldrich, Steinheim, Germany)
Model broth: The model broth comprises the following composition: 1.9 g/L of sodium Sodium chloride (Sigma Aldrich, Steinheim, Germany); 1.9 g/L of mono sodium L-glutatmate (Merck, Darmastadt, Germany); 6.4 g/L of Maltodextrin (Sigma Aldrich, Steinheim, Germany); and 2.1 g/L yeast extract (Gistex GSX II, DSM Food specialities Savoury Ingredients; Delft, Netherlands). The model broth is prepared by mixing the ingrediets under agitation in an ultrasonic bath.
Diluted samples of the mixtures comprising a compound of formula (IA), (IB), (IC), (ID), (IE), (IF), (IG), (IH) and (IJ) in an amount from 86% to 99% by weight measured by quantitative proton-NMR of the present invention: The pH value of each individual mixture comprising an amount from 86% to 99% by weight measured by quantitative proton-NMR of a compound of formula (IA), (IB), (IC), (ID), (IE), (IF), (IG), (IH) and (IJ) was adjusted to 5.4 by the addition of the appropriate amount of formic acid. Each individual pH adjusted mixture thus obtained was diluted 1:2 successively with the model broth to obtain diluted solutions of the mixture comprising a compound of formula formula (IA), (IB), (IC), (ID), (IE), (IF), (IG), (IH) and (IJ) in a concentration from 10 μmol/L to 1000 μmol/L measured by quantitative proton-NMR.
Diluted samples of the comparative compounds 1-3. A mixture of each individual comparative compound 1-3 with model broth was prepared by successively dilution 1:2 of each individual comparative compound with model broth to obtain the diluted comparative solutions having a concentration from 10 μmol/L to 1000 μmol/L measured by quantitative proton-NMR of the comparative compound.
The diluted solutions of the present invention and the comparative solutions falling outside the scope of protection of the present invention obtained above were presented to the panelists with increasing concentrations of the tested solutions by means of the duo-trio-test according to ISO 10399:2017; using the model broth as constant blank. The panelists were asked to mark the differing samples.
The taste threshold is calculated by means of the geometric mean. The geometric mean of the last and the second last concentration was calculated and taken as the individual threshold. The threshold value of the sensory panel was approximated by averaging the threshold values of the individuals in three independent sessions. Values between individuals and separate sessions differed not more than two dilution steps (cf. Lawless, Harry T. “Sensory Evaluation of Food”. Springer, 2nd edition, 2010, pp. 125-145)

For `CCC(SCc1cnc(C)nc1N)C(C)=O` (single isomer, unassigned) [Mixture comprising (IE), 3-(((4-amino-2-methylpyrimidin-5-yl)methyl)thio)pentan-2-one], the “taste quality with the savoury taste threshold in model broth” value (from here on “taste quality”) was “kokumi” and the minimal effective concentration was 35 µM.
For `Cc1ncc(CSC[C@H](N)C(=O)O)c(N)n1` (single isomer, unassigned) [Mixture comprising (IA), S-((4-amino-2-methylpyrimidin-5-yl)methyl)-L-cysteine], the “taste quality” value was “kokumi” and the minimal effective concentration was 120 µM.
For `Cc1ncc(CS)c(N)n1` (single isomer, unassigned) [Mixture comprising (IJ), (4-amino-2-methylpyrimidin-5-yl)methanethiol], the “taste quality” value was “kokumi” and the minimal effective concentration was 80 µM.
With `Cc1ncc(CSc2ccoc2C)c(N)n1` (single isomer, unassigned) [Mixture comprising (IF), 2-methyl-5-(((2-methylfuran-3-yl)thio)methyl)pyrimidin-4-amine] the “taste quality” value was “kokumi” and the minimal effective concentration was 50 µM.
In the case of `Cc1ncc(CSCC(N)C(=O)NCC(=O)O)c(N)n1` (single isomer, unassigned) [Mixture comprising (IC), S-((4-amino-2-methylpyrimidin-5-yl)methyl)cysteinylglycine], the “taste quality” value is reported as “kokumi” and the minimal effective concentration is reported as 880 µM.
With `Cc1ncc(CN)c(N)n1` [Comparative compound 1, 5-(aminomethyl)-2-methylpyrimidin-4-amine, reference compound] the minimal effective concentration was over 1100 µM.
For `CSCc1cnc(C)nc1N` (single isomer, unassigned) [Mixture comprising (IH), 2-methyl-5-((methylthio)methyl)pyrimidin-4-amine], the “taste quality” value was “kokumi” and the minimal effective concentration was 70 µM.
With `Cc1ncc(CSCc2ccco2)c(N)n1` (single isomer, unassigned) [Mixture comprising (IG), 5-(((furan-2-ylmethyl)thio)methyl)-2-methylpyrimidin-4-amine] the “taste quality” value was “kokumi” and the minimal effective concentration was 120 µM.
`Cc1ncc(C[n+]2csc(CCO)c2C)c(N)n1` [Comparative compound 3, Thiamine, reference compound] gave a minimal effective concentration of 1200 µM.
For `CC(=O)C(CCO)SCc1cnc(C)nc1N` (single isomer, unassigned) [Mixture comprising (IB), 3-(((4-amino-2-methylpyrimidin-5-yl)methyl)thio)-5-hydroxy-pentan-2-one], the “taste quality” value was “kokumi” and the minimal effective concentration was 40 µM.
`Cc1ncc(CSCC2NC(=O)CNC2=O)c(N)n1` (single isomer, unassigned) [Mixture comprising (ID), 3-((((4-amino-2-methylpyrimidin-5-yl)methyl)thio)methyl)piperazine-2,5-dione] was tested, and the “taste quality” value was “kokumi” and the minimal effective concentration was 255 µM.
`Cc1ncc(CO)c(N)n1` [Comparative compound 2, (4-amino-2-methylpyrimidin-5-yl)methanol, reference compound] was tested, and the “taste quality” value was “kokumi” and the minimal effective concentration was 700 µM.
